Measured values as given in patent US20250066388A1, “1,3,4,7-TETRAHYDRO-2H-PYRROLO[3',2':5,6]PYRIDO[2,3-B][1,4]OXAZEPINE BCL-2 INHIBITORS” (AbbVie Inc., priority 2022, published 2025).

What was measured:
RS4;11 cells = test: Cell viability assay (CellTiter-Glo) in RS4;11 cells; format: cell-based; conditions: 10% Human Serum
Method: (§1) The acute lymphoblastic leukemia (ALL) human cell line RS4;11 (ATCC, Manassas VA) was used as the primary human cell line to assess the cellular activity of compound of the present Examples in vitro and their efficacy in vivo. […] The acute lymphoblastic leukemia cell line Molt-4, which is derived from immature T-lymphoid cells (T-ALL), was used as a counter screen assay.
(§2) 3000 Cells (0.1×10^6/mL) were seeded in each well of 384-well plate and were treated for 24 hours in a humidified chamber with 5% CO2. Cell viability was determined by CellTiter-Glo as described by the manufacturer's instructions (Promega Corporation, Madison, WI, USA).

Bcl-xL protein = Bcl-xL protein (Homo sapiens (Human), UniProt Q07817); test: TR-FRET binding assay, Bcl-xL; conditions: F-Bak peptide probe
Molt-4 cells = test: Cell viability counter screen (CellTiter-Glo) in Molt-4 cells; format: cell-based; conditions: 24 hours, 10% Human Serum
Method: as §1, §2

Bcl-2 protein = Bcl-2 protein (Homo sapiens (Human), UniProt P10415); test: TR-FRET binding assay, Bcl-2; conditions: F-Bak peptide probe, GST-Bcl-2
Sequence of Bcl-2 protein (P10415 other isoform, or with tags, fused parts or gaps): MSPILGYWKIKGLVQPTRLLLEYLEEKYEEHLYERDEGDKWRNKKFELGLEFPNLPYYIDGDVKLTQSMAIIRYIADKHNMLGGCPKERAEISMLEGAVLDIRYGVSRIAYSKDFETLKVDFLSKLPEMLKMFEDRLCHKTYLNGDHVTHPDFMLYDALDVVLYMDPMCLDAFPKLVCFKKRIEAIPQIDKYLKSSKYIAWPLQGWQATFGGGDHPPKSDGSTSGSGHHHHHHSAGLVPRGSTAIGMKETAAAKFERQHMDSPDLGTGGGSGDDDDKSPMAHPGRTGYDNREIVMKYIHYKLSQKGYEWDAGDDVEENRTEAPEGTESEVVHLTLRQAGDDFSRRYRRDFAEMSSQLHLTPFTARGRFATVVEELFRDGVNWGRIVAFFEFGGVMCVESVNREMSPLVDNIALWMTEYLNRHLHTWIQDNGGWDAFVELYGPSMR

Sequence of Bcl-xL protein (Q07817 other isoform, or with tags, fused parts or gaps): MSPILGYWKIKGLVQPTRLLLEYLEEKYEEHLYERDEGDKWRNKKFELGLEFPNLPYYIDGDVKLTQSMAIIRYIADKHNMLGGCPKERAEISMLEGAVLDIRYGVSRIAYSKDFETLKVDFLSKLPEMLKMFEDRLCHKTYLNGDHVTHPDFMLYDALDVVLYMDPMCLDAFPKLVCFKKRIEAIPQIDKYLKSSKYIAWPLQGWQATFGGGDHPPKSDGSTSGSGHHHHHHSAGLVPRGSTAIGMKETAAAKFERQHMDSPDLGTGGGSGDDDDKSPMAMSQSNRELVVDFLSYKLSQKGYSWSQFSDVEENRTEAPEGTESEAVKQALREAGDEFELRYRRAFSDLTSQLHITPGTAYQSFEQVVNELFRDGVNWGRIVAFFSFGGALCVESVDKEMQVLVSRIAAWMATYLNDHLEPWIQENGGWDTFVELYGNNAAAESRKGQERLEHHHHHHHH

Compound | EC50 (RS4;11 cells; 24 hours) [nM] | Ki (Bcl-xL protein) [nM] | EC50 (Molt-4 cells) [nM] | Ki (Bcl-2 protein) [nM] | EC50 (RS4;11 cells; Homo sapiens, RS4-11, 24 h) [nM]
CC1(C)CC(c2ccc(Cl)cc2)=C2CN3CCN(c4ccc(C(=O)NS(=O)(=O)c5ccc(NC[C@H]6CC[C@H](N7CCOCC7)CO6)c([N+](=O)[O-])c5)c(N5CCCOc6nc7[nH]ccc7cc65)c4)C[C@H]3COCCCO[C@@H]2C1 [Example 37, 4-((4aS,10aR)-14-(4-chlorophenyl)-12,12-dimethyl-1,2,4a,5,8,9,10a,11,13,15-decahydro-7H,12H-benzo[f]pyrazino[2,1-c][1,8]dioxa[4]azacycloundecin-3(4H)-yl)-2-(3,4-dihydro-2H-pyrrolo[3′,2′:5,6]pyrido[2,3-b][1,4]oxazepin-1(7H)-yl)-N-((4-((((2R,5S)-5-morpholinotetrahydro-2H-pyran-2-yl)methyl)amino)-3-nitrophenyl)sulfonyl)benzamide] | 1.05 | 4.61 | 1450 | 0.109 | –
CC1(C)CC(c2ccc(Cl)cc2)=C2CN3CCN(c4ccc(C(=O)NS(=O)(=O)c5ccc(NC[C@H]6CC[C@H](N7CCOCC7)CC6)c([N+](=O)[O-])c5)c(N5CCCOc6nc7[nH]ccc7cc65)c4)C[C@H]3COCCCO[C@@H]2C1 [Example 28, 4-((4aS,10aR)-14-(4-chlorophenyl)-12,12-dimethyl-1,2,4a,5,8,9,10a,11,13,15-decahydro-7H,12H-benzo[f]pyrazino[2,1-c][1,8]dioxa[4]azacycloundecin-3(4H)-yl)-2-(3,4-dihydro-2H-pyrrolo[3′,2′:5,6]pyrido[2,3-b][1,4]oxazepin-1(7H)-yl)-N-((4-((((1r,4r)-4-morpholinocyclohexyl)methyl)amino)-3-nitrophenyl)sulfonyl)benzamide] | 0.862 | 4.71 | 274 | 0.833 | –
CN1CCC(Nc2ccc(S(=O)(=O)NC(=O)c3ccc(N4CCN5CC6=C(c7ccc(Cl)cc7)CC(C)(C)C[C@H]6OCCCOC[C@@H]5C4)cc3N3CCCOc4nc5[nH]ccc5cc43)cc2[N+](=O)[O-])CC1 [Example 31, 4-((4aS,10aR)-14-(4-chlorophenyl)-12,12-dimethyl-1,2,4a,5,8,9,10a,11,13,15-decahydro-7H,12H-benzo[f]pyrazino[2,1-c][1,8]dioxa[4]azacycloundecin-3(4H)-yl)-2-(3,4-dihydro-2H-pyrrolo[3′,2′:5,6]pyrido[2,3-b][1,4]oxazepin-1(7H)-yl)-N-((4-((1-methylpiperidin-4-yl)amino)-3-nitrophenyl)sulfonyl)benzamide] | 3.24 | 5.75 | 1220 | 0.51 | –
C[C@@H]1CO[C@@H](CNc2ccc(S(=O)(=O)NC(=O)c3ccc(N4CCN5CC6=C(c7ccc(Cl)cc7)CC(C)(C)C[C@H]6OCCCOC[C@@H]5C4)cc3N3CCCOc4nc5[nH]ccc5cc43)cc2[N+](=O)[O-])CO1 [Example 6, 4-((4aS,10aR)-14-(4-chlorophenyl)-12,12-dimethyl-1,2,4a,5,8,9,10a,11,13,15-decahydro-7H,12H-benzo[f]pyrazino[2,1-c][1,8]dioxa[4]azacycloundecin-3(4H)-yl)-2-(3,4-dihydro-2H-pyrrolo[3′,2′:5,6]pyrido[2,3-b][1,4]oxazepin-1(7H)-yl)-N-((4-((((2S,5R)-5-methyl-1,4-dioxan-2-yl)methyl)amino)-3-nitrophenyl)sulfonyl)benzamide] | 1.55 | 5.62 | 1910 | 0.438 | –
CC1(C)CC(c2ccc(Cl)cc2)=C2CN3CCN(c4ccc(C(=O)NS(=O)(=O)c5ccc(NC[C@H]6CC[C@H](O)CO6)c([N+](=O)[O-])c5)c(N5CCCOc6nc7[nH]ccc7cc65)c4)C[C@H]3COCCCO[C@@H]2C1 [Example 12, 4-((4aS,10aR)-14-(4-chlorophenyl)-12,12-dimethyl-1,2,4a,5,8,9,10a,11,13,15-decahydro-7H,12H-benzo[f]pyrazino[2,1-c][1,8]dioxa[4]azacycloundecin-3(4H)-yl)-2-(3,4-dihydro-2H-pyrrolo[3′,2′:5,6]pyrido[2,3-b][1,4]oxazepin-1(7H)-yl)-N-((4-((((2R,5S)-5-hydroxytetrahydro-2H-pyran-2-yl)methyl)amino)-3-nitrophenyl)sulfonyl)benzamide] | – | 6.13 | 823 | 0.888 | 0.966
C[C@@H]1CO[C@@H](COc2ccc(S(=O)(=O)NC(=O)c3ccc(N4CCN5CC6=C(c7ccc(Cl)cc7)CC(C)(C)C[C@H]6OCCCOC[C@@H]5C4)cc3N3CCCOc4nc5[nH]ccc5cc43)cc2[N+](=O)[O-])CO1 [Example 20, 4-((4aS,10aR)-14-(4-chlorophenyl)-12,12-dimethyl-1,2,4a,5,8,9,10a,11,13,15-decahydro-7H,12H-benzo[f]pyrazino[2,1-c][1,8]dioxa[4]azacycloundecin-3(4H)-yl)-2-(3,4-dihydro-2H-pyrrolo[3′,2′:5,6]pyrido[2,3-b][1,4]oxazepin-1(7H)-yl)-N-((4-(((2R,5R)-5-methyl-1,4-dioxan-2-yl)methoxy)-3-nitrophenyl)sulfonyl)benzamide] | 5.21 | 17.3 | 1610 | 0.977 | –
CO[C@H]1C[C@@H](CNc2ccc(S(=O)(=O)NC(=O)c3ccc(N4CCN5CC6=C(c7ccc(Cl)cc7)CC(C)(C)C[C@H]6OCCCOC[C@@H]5C4)cc3N3CCCOc4nc5[nH]ccc5cc43)cc2[N+](=O)[O-])C1 [Example 24, 4-((4aS,10aR)-14-(4-chlorophenyl)-12,12-dimethyl-1,2,4a,5,8,9,10a,11,13,15-decahydro-7H,12H-benzo[f]pyrazino[2,1-c][1,8]dioxa[4]azacycloundecin-3(4H)-yl)-2-(3,4-dihydro-2H-pyrrolo[3′,2′:5,6]pyrido[2,3-b][1,4]oxazepin-1(7H)-yl)-N-((4-((((1s,3s)-3-methoxycyclobutyl)methyl)amino)-3-nitrophenyl)sulfonyl)benzamide] | 4.9 | 10.3 | > 10000 | 0.248 | –
CO[C@H]1CC[C@H](COc2ccc(S(=O)(=O)NC(=O)c3ccc(N4CCN5CC6=C(c7ccc(Cl)cc7)CC(C)(C)C[C@H]6OCCCOC[C@@H]5C4)cc3N3CCCOc4nc5[nH]ccc5cc43)cc2[N+](=O)[O-])OC1 [Example 33, 4-((4aS,10aR)-14-(4-chlorophenyl)-12,12-dimethyl-1,2,4a,5,8,9,10a,11,13,15-decahydro-7H,12H-benzo[f]pyrazino[2,1-c][1,8]dioxa[4]azacycloundecin-3(4H)-yl)-2-(3,4-dihydro-2H-pyrrolo[3′,2′:5,6]pyrido[2,3-b][1,4]oxazepin-1(7H)-yl)-N-((4-(((2R,5S)-5-methoxytetrahydro-2H-pyran-2-yl)methoxy)-3-nitrophenyl)sulfonyl)benzamide] | 3.49 | 28.6 | 6080 | 0.272 | –
CC1(C)CC(c2ccc(Cl)cc2)=C2CN3CCN(c4ccc(C(=O)NS(=O)(=O)c5ccc(NC[C@H]6CC[C@](O)(CF)CC6)c([N+](=O)[O-])c5)c(N5CCCOc6nc7[nH]ccc7cc65)c4)C[C@H]3COCCCO[C@@H]2C1 [Example 14, 4-((4aS,10aR)-14-(4-chlorophenyl)-12,12-dimethyl-1,2,4a,5,8,9,10a,11,13,15-decahydro-7H,12H-benzo[f]pyrazino[2,1-c][1,8]dioxa[4]azacycloundecin-3(4H)-yl)-2-(3,4-dihydro-2H-pyrrolo[3′,2′:5,6]pyrido[2,3-b][1,4]oxazepin-1(7H)-yl)-N-((4-((((1s,4s)-4-(fluoromethyl)-4-hydroxycyclohexyl)methyl)amino)-3-nitrophenyl)sulfonyl)benzamide] | 1.64 | 20.8 | 1740 | 0.24 | –
